Measurements taken from ChEMBL document CHEMBL3120076, “Structure-activity relationship of Baifuzi-cerebrosides on BKCa channel activation” (Eur J Med Chem, 2014).
Each block holds one compound with its values, some of them ahead of it. Activity calls are given as the source filed them. The rule behind the calls is not given here.

Legend:
Assay type in all cases: cell-based
CHO-K1 [1] = assay: Activation of wild type BK calcium channel (unknown origin) expressed in CHO-K1 cells assessed as increase in channel open probability by whole cell patch-clamp technique relative to control; settings: Homo sapiens
CHO-K1 [2] = assay: Activation of wild type BK calcium channel STREX domain-deleted mutant (unknown origin) expressed in CHO-K1 cells assessed as increase in channel open probability at 10 uM at +20 mV holding potential by whole cell patch-clamp technique (reference value: 0.7 +/- 0.1%); settings: Homo sapiens
CHO-K1 [3] = assay: Activation of wild type BK calcium channel (unknown origin) expressed in CHO-K1 cells assessed as increase in channel open probability at 1 uM at +20 mV holding potential by whole cell patch-clamp technique (reference value: 0.58 +/- 0.03%); settings: Homo sapiens
CHO-K1 [4] = assay: Activation of wild type BK calcium channel (unknown origin) expressed in CHO-K1 cells assessed as increase in channel open probability at 0.1 uM at +20 mV holding potential by whole cell patch-clamp technique (reference value: 0.58 +/- 0.03%); settings: Homo sapiens
CHO-K1 [5] = assay: Activation of wild type BK calcium channel (unknown origin) expressed in CHO-K1 cells assessed as increase in channel open probability at 10 uM at +20 mV holding potential by whole cell patch-clamp technique (reference value: 0.58 +/- 0.03%); settings: Homo sapiens
CHO-K1 [6] = assay: Extracellular activation of wild type BK calcium channel (unknown origin) expressed in CHO-K1 cells assessed as increase in whole cell currents at 10 uM by whole cell patch-clamp technique; settings: Homo sapiens
[7] = (§1) Activation of wild type BK calcium channel (unknown origin) expressed in CHO-K1 cells assessed as increase in channel open probability at +20 mV holding potential by whole cell patch-clamp technique
CHO-K1 [8] = assay: as §1; settings: Homo sapiens
CHO-K1 [9] = assay: Activation of wild type BK calcium channel (unknown origin) expressed in CHO-K1 cells assessed as increase in channel open probability at 5 uM at +20 mV holding potential by whole cell patch-clamp technique (reference value: 0.58 +/- 0.03%); settings: Homo sapiens

Compound: CCCCCCCCC/C=C/CC/C=C/[C@@H](O)[C@H](CO[C@@H]1O[C@H](CO)[C@@H](O)[C@H](O)[C@H]1O)NC(=O)[C@H](O)CCCCCCCCCCCCCCCC
fold change (FC) (CHO-K1 [1]): 2.03

Compound: CCCCCCCCC/C=C/CC/C=C/[C@@H](O)[C@H](CO[C@@H]1O[C@H](CO)[C@@H](O)[C@H](O)[C@H]1O)NC(=O)[C@H](O)CCCCCCCCCCCCCCCCCC
fold change (FC) (CHO-K1 [1]): 3.12

EC50 [7]: 1 µM
Compound: CCCCCCCCC/C=C\CC/C=C/[C@@H](O)[C@H](CO[C@@H]1O[C@H](CO)[C@@H](O)[C@H](O)[C@H]1O)NC(=O)[C@H](O)CCCCCCCCCCCCCCCCCCCC
Activity (CHO-K1 [2]): 0.9%
Activity (CHO-K1 [3]): 2.4%
Activity (CHO-K1 [4]): 0.65%
Activity (CHO-K1 [5]): 4.2%
Activity (CHO-K1 [6]): Active
Activity (CHO-K1 [8]): Dose-dependent effect
fold change (FC) (CHO-K1 [1]): 5.34
Activity (CHO-K1 [9]): 3.3%

Compound: CCCCCCCCC/C=C\CC/C=C/[C@@H](O)[C@H](CO[C@@H]1O[C@H](CO)[C@@H](O)[C@H](O)[C@H]1O)NC(=O)[C@H](O)CCCCCCCCCCCCCCCC
fold change (FC) (CHO-K1 [1]): 1.15

Compound: CCCCCCCCC/C=C\CC/C=C/[C@@H](O)[C@H](CO[C@@H]1O[C@H](CO)[C@@H](O)[C@H](O)[C@H]1O)NC(=O)[C@H](O)CCCCCCCCCCCCCCCCCC
fold change (FC) (CHO-K1 [1]): 1.89
